The target in test [1] is T1, Leishmania CRK3:CYC6 (Leishmania major, UniProt O96526). The format is biochemical. Particulars: BioFocus SFK48 HTS hits, rescreen. As for the experimental part: (§1) Leishmania CRK3:CYC6 protein kinase assays were performed in 96-well microtiter plates in a final volume of 25 µl. Each assay point contained 7.5 ng of co-expressed histidine-tagged CRK3:CYC6 protein kinase complex (hereafter referred to as CRK3:CYC6) diluted in enzyme dilution buffer (EDB) (20 mM Tris-HCl pH 7.2, 0.5 mg ml^−1 BSA, 2.5% glycerol and 0.006% Brij-35). Assays were performed using the assay development buffer (ADB) (20 mM MOPS, pH 7.0, 25 mM β-glycerophosphate, 5 mM EGTA, 1 mM NaVO3, 1 mM DTT and 15 mM MgCl2) supplemented with 100 µM ATP, 0.5 µCi of γ-^32P ATP per reaction and histone H1 as a substrate used at 0.4 mg ml^−1. Two and three-fold titrations were set up to determine the concentration of enzyme to be used per assay point (7.5 ng) and to determine the concentrations of selected inhibitors required for 50% inhibition of Leishmania CRK3:CYC6 protein kinase activity (IC50 values), respectively. For IC50 determinations, assay mixes contained DMSO to a final concentration of 2%. Mammalian protein kinase assays were carried out according to the assay protocols developed at Cyclacel. Assays were carried out for 30 minutes at 30°C before stopping the reaction by the addition of an equal volume (25 µl) of 75 mM orthophosphoric acid. Samples were spotted onto a p81 cellulose filterplate (Nunc) and a vacuum applied. Wells were washed 3×200 µl with 75 mM phosphoric acid and the bottom of the plate sealed. 50 µl of Microscint 40 (Perkin Elmer) was added per well before incorporation of radioactivity was determined on a Topcount microplate scintillation counter.
Target sequence in this assay (Q4Q4U0 entry or part of it): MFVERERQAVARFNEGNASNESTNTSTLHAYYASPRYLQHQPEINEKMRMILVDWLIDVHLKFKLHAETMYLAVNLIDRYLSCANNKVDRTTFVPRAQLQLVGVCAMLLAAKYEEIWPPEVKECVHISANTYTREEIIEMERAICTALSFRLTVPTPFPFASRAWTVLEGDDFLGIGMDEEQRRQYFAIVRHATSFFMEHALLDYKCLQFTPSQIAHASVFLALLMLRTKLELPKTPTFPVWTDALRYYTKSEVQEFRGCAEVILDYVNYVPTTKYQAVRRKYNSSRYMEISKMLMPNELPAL
Target sequence in this assay (O96526 entry or part of it): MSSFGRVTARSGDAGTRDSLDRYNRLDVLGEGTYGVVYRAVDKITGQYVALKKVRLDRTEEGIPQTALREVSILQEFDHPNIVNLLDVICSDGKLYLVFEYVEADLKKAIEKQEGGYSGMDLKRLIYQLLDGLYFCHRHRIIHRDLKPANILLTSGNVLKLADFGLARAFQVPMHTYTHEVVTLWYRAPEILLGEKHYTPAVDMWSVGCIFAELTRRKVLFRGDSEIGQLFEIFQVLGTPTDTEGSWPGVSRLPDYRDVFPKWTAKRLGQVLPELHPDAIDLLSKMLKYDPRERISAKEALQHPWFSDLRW

The subject of test [2] is WT promastigote L. major. The test is described as follows: L. major promastigote growth inhibition assay (resazurin). Particulars: BioFocus SFK48 HTS hits; 5 days at 25°C; read-out: IC50 against WT promastigote L. major. The format is cell-based. As for the experimental part: L. major wild type promastigotes (Friedlin strain: WHO designation MHOM/JL/81/Friedlin) were grown at 25°C in HOMEM medium (Invitrogen cat no. 041-94699111) supplemented with 10% (v/v) heat inactivated foetal calf serum (HIFCS) and 1% (v/v) penicillin/streptomycin antibiotics.
CRK3 inhibitors were diluted into HOMEM medium supplemented with 10% HIFCS at twice the final screening concentration. Five-fold or ten-fold serial dilutions were carried out into HOMEM medium supplemented with 10% HIFCS. 100 µl of each drug concentration were added to a 96 well plate in duplicate. 100 µl of five-fold or ten-fold serial dilutions of 1 mM Pentamidine (Sigma) and an equivalent volume of 100% DMSO were included as positive and negative controls, in duplicate, respectively. L. major promastigote cells were diluted to a cell density of 2×10^6 cells ml^−1 in HOMEM media supplemented with 10% HIFCS and 100 µl added to all wells in 96 well plates. Plates were sealed with parafilm and incubated for 5 days at 25°C. After 5 days, 20 µl of filter sterile resazurin solution (12.5 mg resazurin salt in 100 ml PBS) (Sigma) was added to each of the wells and the plate incubated for a further 24 hours at 25°C. Fluorescence was measured using an Envision plate reader (Perkin Elmer) at 540 nm excitation wavelength and 590 nm emission wavelength.
For orientation: Resazurin is reduced to fluorescent resorufin, in cell work by metabolically active cells.

Test [3] has as its target human CDK2:CycA (Homo sapiens, UniProt P24941). The test is described as follows: Mammalian protein kinase assay / counter screen, CDK2:CYCA. The class given is biochemical. Particulars: for IC50: BioFocus SFK48 HTS hits, re-screen; for activity towards CDK2:CycA in the primary screen: BioFocus SFK48 library, counter screen. Here is the method: as §1
For orientation: A counterscreen serves to expose hits that act by an unwanted route or on another target.

For test [4], the target named is T1, Leishmania CRK3:CYC6. As to the kind of experiment: IMAP fluorescence polarisation high throughput screen of CRK3:CYC6. Set-up: made in house; host or cells: E. coli BL21 (DE3) pLys-S. The format is biochemical, L. major. Particulars: BioFocus SFK48 library, primary concentration 20 µM. As for the experimental part:
(§2) Protein kinase assays were performed in 384-well non-treated black plates (Nunc) in a final volume of 20 µl. Each assay point contained 1.25 ng of co-expressed Leishmania CRK3:CYC6 protein kinase complex. […] The enzyme complex, peptide and ATP were made up in the IMAP complete reaction buffer (CRB) (10 mM Tris-HCl, pH 7.2, 10 mM MgCl2, 0.05% NaN3, 0.01% Tween-20 and 1 mM DTT). Assays were carried out for 1 hour 20 minutes at room temperature and the reaction stopped by the addition of 50 µl of the IMAP progressive binding reagent (Proprietary buffer from Molecular Devices plus tri-valent metal-containing nanoparticles). The assay was left to proceed for a further 1 hour 20 minutes at room temperature and the fluorescence polarization determined by a Perkin Elmer Fusion microplate reader, with excitation at 485 nm and emission at 535 nm.
Target sequence in this assay (O96526 entry or part of it): as above

Test [5] deals with CRK3:CYC6. Particulars: peptide as substrate of CRK3:CYC6. As for the experimental part: as §2
Sequence of CRK3:CYC6 (O96526 entry or part of it): as above
The IMAP fluorescent polarisation assay was selected for the high throughput screen. First a substrate finder assay was carried out with 61 potential serine/threonine protein kinase substrates. […] In order to establish the quantity of CRK3:CYC6 to use in the IMAP HTS assays, a two-fold enzyme titration was carried out (Figure S2 in Supporting Information Text S1).

What is called IC50 is the concentration needed to halve the response being measured.

With `NC(c1ccccc1)c1csc(NC(=O)Nc2ccccc2)n1` (centres unmarked) [Compound 36], the IC50 was 3.5 µM in test [1], 26.8 µM in test [2] and over 20 µM in test [3].
On to `NC(c1ccccc1)c1csc(NC(=O)Nc2ccccc2Cl)n1` (centres unmarked) [Compound 37], for which the concentration for half-maximal inhibition (IC50) in test [1] was 4.8 µM; in test [2], 27.5 µM; in test [3], over 20 µM.
The matching figures for `COc1ccc(CC(N)c2csc(NC(=O)Nc3ccccc3Oc3ccccc3)n2)cc1` (centres unmarked) [Compound 38]: 5 µM, 3.3 µM and over 20 µM.
In the case of `COc1ccc(C(N)c2csc(NC(=O)Nc3ccc(C(C)C)cc3)n2)cc1` (centres unmarked) [Compound 39], the half-maximal inhibitory concentration (IC50) is 7.5 µM in test [1], 3.8 µM in test [2] and over 20 µM in test [3].
With `CC(C)c1ccccc1NC(=O)Nc1nc(C2CCC(=O)N2)cs1` (centres unmarked) [Compound 40], the IC50 in test [1] was 7.8 µM; in test [2] it was over 50 µM; in test [3], over 20 µM.
Consider `Cc1ccccc1NC(=O)Nc1nc(C(N)c2ccccc2Cl)cs1` (centres unmarked) [Compound 41], for which the IC50 in test [1] was 9 µM; in test [2], 26.1 µM; in test [3], over 20 µM.
`NC(c1ccccc1)c1csc(NC(=O)Nc2ccc(OC(F)(F)F)cc2)n1` (centres unmarked) [Compound 42]: the values for the 50% inhibitory concentration (IC50) in test [1], in test [2] and in test [3] were 10 µM, 6.9 µM and over 20 µM, respectively.
Turning to `NC(c1csc(NC(=O)Nc2cccc(Cl)c2)n1)c1ccccc1Cl` (centres unmarked) [Compound 43], the half-inhibitory concentration (IC50) in test [2] is 12.5 µM. In test [3], the “activity towards CDK2:CycA in the primary screen” value (shortened to “activity towards CDK2:CycA”) was “active”. The “activity towards CRK3:CYC6 in the primary screen” value (“activity towards CRK3:CYC6” for short) in test [4] was “active”.
In the case of `CN(C)Cc1csc(NC(=O)Nc2ccccc2Oc2ccccc2)n1` [Compound 44], in test [2], the IC50 was found to be 14.4 µM. Moreover, the “activity towards CDK2:CycA” value in test [3] is listed as “active”. The “activity towards CRK3:CYC6” value in test [4] was “active”.
Consider `COc1ccc(CC(N)c2csc(NC(=O)Nc3cc(OC)ccc3OC)n2)cc1` (centres unmarked) [Compound 45], for which, in test [2], the IC50 came to 6.8 µM. Also, the “activity towards CDK2:CycA” value in test [3] was “inactive”. Also, the “activity towards CRK3:CYC6” value in test [4] was “inactive”.
Consider `COc1ccc(CNC(=O)Nc2nc(C(N)CCc3ccccc3)cs2)cc1` (centres unmarked) [Compound 46], for which the IC50 in test [2] was determined as 7.8 µM. In addition, the “activity towards CDK2:CycA” value in test [3] is “inactive”. Further, the “activity towards CRK3:CYC6” value in test [4] is “inactive”.
FLAKSFGSPNRAYKK [CDK7 derived] displayed a ΔmP signal in test [5] of 180 mP.
Turning to GGGPATPKKAKKL [Histone H1 derived], in test [5], the ΔmP signal is listed as 295 mP.
In test [5], GGGRSPGRRRRK [Generic Sequence] showed a ΔmP signal of 310 mP.
In the case of “PKTPKKAKKL [Histone H1 derived (aa 9–18)]”, the ΔmP signal in test [5] was 280 mP.
The same measure, in the same setting: for RRRFRPASPLRGPPK [DYRKtide] the value was 190 mP.
